Reference: US9469606B2, “Wnt/b-catenin inhibitors and methods of use” (The General Hospital Corporation, priority 2011, dated 2016)

Assays:
[1] = tested on: beta-catenin target gene promoters; assay: ChIP-RT-PCR of β-catenin recruitment to target promoters in HCT116 cells; format: cell-based, human
Excerpt: (§1) See, for example: • Polakis P. Drugging Wnt signalling in cancer. EMBO J. 2012 May 22; 31(12):2737-46; Bialkowska A B, Yang V W. High-throughput screening strategies for targeted identification of therapeutic compounds in colorectal cancer. Future Oncol. 2012 March; 8(3):259-72; • Huang S M, Mishina Y M, Liu S, Cheung A, Stegmeier F, Michaud G A, Charlat O, Wiellette E, Zhang Y, Wiessner S. Hild M, Shi X, Wilson C J, Mickanin C. Myer V, Fazal A, Tomlinson R, Serluca F, Shao W, Cheng H, Shultz M, Rau C, Schirle M, Schlegl J, Ghidelli S, Fawell S, Lu C, Curtis D, Kirschner M W, Lengauer C. Finan P M, Tallarico J A, Bouwmeester T, Porter J A, Bauer A, Cong F. Tankyrase inhibition stabilizes axin and antagonizes Wnt signalling. Nature. 2009 Oct. 1; 461(7264):614-20; • Chen B, Dodge M E, Tang W, Lu J, Ma Z, Fan C W, Wei S, Hao W, Kilgore J, Williams N S, Roth M G, Amatruda J F. Chen C. Lum L. Small molecule-mediated disruption of Wnt-dependent signaling in tissue regeneration and cancer. Nat Chem. Biol. 2009 February; 5(2): 100-7; • Thorne C A, Hanson A J, Schneider J, Tahinci E, Orton D, Cselenyi C S, Jernigan K K, Meyers K C, Hang B I, Waterson A G, Kim K, Melancon B, Ghidu V P, Sulikowski G A, LaFleur B, Salic A, Lee L A, Miller D M 3rd, Lee E. Small-molecule inhibition of Wnt signaling through activation of casein kinase 1α. […]

[2] = tested on: Wnt/β-catenin-dependent cancer cells; assay: Colony formation; format: cell-based; settings: a number of Wnt/β-catenin-dependent cancer cells
Excerpt: as §1

β-catenin [3] = assay: Western blotting and immunoprecipitation of β-catenin forms; format: cell-based
Excerpt: as §1, with “1α. Nat Chem. Biol. 2010 November; 6(11):829-36; • Wei W, Chua M S. Grepper S, So S. Small molecule antagonists of Tcf4/beta-catenin complex inhibit the growth of HCC cells in vitro and in vivo. Int J Cancer. 2010 May 15; 126(10):2426-36; • Lepourcelet M, Chen Y N, France D S, Wang H, Crews P, Petersen F, Bruseo C, Wood A W, Shivdasani R A. Small-molecule antagonists of the oncogenic Tcf/beta-catenin protein complex. Cancer Cell. 2004 January; 5(1):91-102; • Grossmann T N, Yeh J T, Bowman B R, Chu Q, Moellering R E, Verdine G L. Inhibition of oncogenic Wnt signaling through direct targeting of β-catenin. Proc Natl Acad Sci USA. 2012 Oct. 15.” for “1α.”

mammary tumor = assay: Spontaneous mouse model of breast cancer (MMTV-Wnt1); format: in vivo; settings: MMTV-Wnt1 tumor mice
Excerpt: Raj L, Ide T, Gurkar A U, Foley M, Schenone M, Li X, Tolliday N J, Golub T R, Carr S A, Shamji A F, Stern A M, Mandinova A, Schreiber S L, Lee S W. Selective killing of cancer cells by a small molecule targeting the stress response to ROS. Nature. 2011 Jul. 13; 475(7355):231-4; • Huang S, Li Y, Chen Y, Podsypanina K, Chamorro M, Olshen A B, Desai K V, Tann A, Petersen D, Green J E, Varmus H E. Changes in gene expression during the development of mammary tumors in MMTV-Wnt-1 transgenic mice. Genome Biol. 2005; 6(10):R84.

β-catenin/TCF = assay: TCF/LEF reporter (TOP-Luciferase) assay in Wnt-dependent HCT116; format: cell-based, human
Excerpt: as §1

β-catenin [4] = assay: Wnt-induced β-catenin accumulation; format: cell-based
Excerpt: as §1

HT115 colon cancer cells = assay: Xenograft study, HT115; format: in vivo; settings: HT115 xenograft in mice, 20 mg/kg daily i.p.
Method: (§2) A, HCT116 colon cancer cells; B, HT115 colon cancer cells; and C, H23 human lung cancer cells. 20 mg/kg was injected daily via i.p.
as §1, with “cancer.” for “cancer. Nat Chem. Biol. 2009 February; 5(2): 100-7; • Thorne C A, Hanson A J, Schneider J, Tahinci E, Orton D, Cselenyi C S, Jernigan K K, Meyers K C, Hang B I, Waterson A G, Kim K, Melancon B, Ghidu V P, Sulikowski G A, LaFleur B, Salic A, Lee L A, Miller D M 3rd, Lee E. Small-molecule inhibition of Wnt signaling through activation of casein kinase 1α.”

[5] = tested on: H23 human lung cancer cells; assay: Xenograft study, H23; format: in vivo; settings: H23 xenograft in mice, 20 mg/kg daily i.p.
Method: as §2
as §1, with “cancer.” for “cancer. Nat Chem. Biol. 2009 February; 5(2): 100-7; • Thorne C A, Hanson A J, Schneider J, Tahinci E, Orton D, Cselenyi C S, Jernigan K K, Meyers K C, Hang B I, Waterson A G, Kim K, Melancon B, Ghidu V P, Sulikowski G A, LaFleur B, Salic A, Lee L A, Miller D M 3rd, Lee E. Small-molecule inhibition of Wnt signaling through activation of casein kinase 1α.”

[6] = tested on: HCT116 colon cancer cells; assay: Xenograft study, HCT116; format: in vivo; settings: HCT116 xenograft in mice, 20 mg/kg daily i.p.
Method: as §2
as §1, with “cancer.” for “cancer. Nat Chem. Biol. 2009 February; 5(2): 100-7; • Thorne C A, Hanson A J, Schneider J, Tahinci E, Orton D, Cselenyi C S, Jernigan K K, Meyers K C, Hang B I, Waterson A G, Kim K, Melancon B, Ghidu V P, Sulikowski G A, LaFleur B, Salic A, Lee L A, Miller D M 3rd, Lee E. Small-molecule inhibition of Wnt signaling through activation of casein kinase 1α.”

β-catenin [7] = assay: β-catenin protein level and phosphorylation in HCT116 cells; format: cell-based, human
Excerpt: as §1

normal cells = assay: Cytotoxicity in normal cells; format: cell-based
Excerpt: as §1

[8] = tested on: β-catenin/TCF-dependent genes; assay: Wnt/β-catenin target gene expression (real-time quantitative PCR, protein level); format: cell-based
Method: A. mRNA expression was measured by Real-time quantitative PCR.
as §1, with “1α. Nat Chem. Biol. 2010 November; 6(11):829-36; • Wei W, Chua M S. Grepper S, So S. Small molecule antagonists of Tcf4/beta-catenin complex inhibit the growth of HCC cells in vitro and in vivo. Int J Cancer. 2010 May 15; 126(10):2426-36; • Lepourcelet M, Chen Y N, France D S, Wang H, Crews P, Petersen F, Bruseo C, Wood A W, Shivdasani R A. Small-molecule antagonists of the oncogenic Tcf/beta-catenin protein complex. Cancer Cell. 2004 January; 5(1):91-102; • Grossmann T N, Yeh J T, Bowman B R, Chu Q, Moellering R E, Verdine G L. Inhibition of oncogenic Wnt signaling through direct targeting of β-catenin. Proc Natl Acad Sci USA. 2012 Oct. 15.” for “1α.”

[9] = tested on: Wnt/β-catenin-dependent cancer cells; assay: Cytotoxicity in Wnt/β-catenin-dependent cancer cells; format: cell-based
Excerpt: as §1

[10] = tested on: H460 human lung cancer cells; assay: Wnt/b-catenin-independent tumor growth, H460; format: in vivo; settings: Wnt/b-catenin-independent H460 tumors in mice
Excerpt: as §1

[11] = tested on: Wnt/β-catenin-independent cancer cells; assay: Cytotoxicity in Wnt/β-catenin-independent cancer cells; format: cell-based
Excerpt: as §1

For `COC(=O)c1cccc(NS(=O)(=O)c2ccc(C)cc2)c1` [OC0021, methyl 3-{[(4-methylphenyl)sulfonyl]amino}benzoate], the “beta-catenin binding its target gene promoters” value [1] was “inhibits beta-catenin binding its target gene promoters”, the colony formation [2] was “inhibits colony formation” and the “ABC (Active form of b-catenin)” value (β-catenin [3]) was “supresses ABC”. The “expression of oncogene Myc target gene” value (β-catenin [3]) was “inhibits the expression of oncogene Myc target gene”, the “phosphorylated β-catenins (phospho-β-catenin-33/37/41; -41/45)” value (β-catenin [3]) was “increases phosphorylated β-catenins” and the “growth of mammary tumor” value (mammary tumor) was “inhibits the growth of mammary tumor”. The TCF/LEF reporter activity (β-catenin/TCF) was “inhibits the TCF/LEF reporter activity”, the “transcriptional activity of β-catenin/TCF” value (β-catenin/TCF; human colon cancer cells HCT116 with beta-catenin mutation) was “inhibits the transcriptional activity of β-catenin/TCF in a dose dependent manner” and the “Wnt-induced β-catenin accumulation” value (β-catenin [4]) was “inhibits Wnt-induced β-catenin accumulation”. For the same compound, the anti-tumor activity (HT115 colon cancer cells) was “anti-tumor activity”, the anti-tumor activity [5] was “anti-tumor activity” and the anti-tumor activity [6] was “anti-tumor activity”. For the same compound, the beta-catenin protein levels (β-catenin [7]; HCT116 cells) was “decreases beta-catenin protein levels”, the “β-catenin degradation / phosphorylation at T41/S45” value (β-catenin [7]; HCT116 colon cancer cells) was “promotes β-catenin degradation via increased β-catenin phosphorylation at T41/S45” and the cytotoxic effect (normal cells) was “no significant cytotoxic”. For the same compound, the “protein level of endogenous β-catenin/TCF-dependent genes, Cyclin D1 and c-Myc” value [8] was “down regulates the protein level”, the “stability of Axin1 and Axin2” value [8] was “enhances stability of Axin1 and Axin2” and the “Wnt/β-catenin-mediated gene transcription (mRNA expression of Myc, cyclin D1, Axin1 and 2)” value ([8]; Real-time quantitative PCR) was “modulates Wnt/β-catenin-mediated gene transcription”. For the same compound, the cytotoxic effect [9] was “cytotoxic effect”, the tumor growth [10] was “does not affect” and the cytotoxic effect [11] was “no significant cytotoxic”.
